Experimental data reported in ChEMBL document CHEMBL2062419, “Synthesis and antiviral activities of hexadecyloxypropyl prodrugs of acyclic nucleoside phosphonates containing guanine or hypoxanthine and a (S)-HPMP or PEE acyclic moiety” (Eur J Med Chem, 2012).
Activity calls are given as the source filed them. The rule behind the calls is not given here.

Experiments:
[1] = system: Human immunodeficiency virus 2; assay: Antiviral activity against HIV2 ROD infected in human CEM cells assessed as reduction in virus-induced CEM giant cell formation incubated for 4 days at 37 degC by microscopy; format: functional, organism-based; conditions: ISOLATE ROD, CCRF-CEM
[2] = Selectivity index, ratio of cytotoxic CC50 for HEL cells to EC50 for VZV YS
[3] = Cytotoxicity against HEL cells assessed as effect on cell morphology incubated for 3 days by microscopy; format: cell-based; conditions: human
Human alphaherpesvirus 3 [4] = assay: Antiviral activity against thymidine kinase positive VZV YS infected in HEL cells by plaque formation assay; format: functional, organism-based; conditions: Human alphaherpesvirus 3, YS
[5] = Selectivity index, ratio of cytotoxic CC50 for HEL cells to EC50 for VZV YS/R
Sindbis virus = assay: Antiviral activity against Sindbis virus by viral CPE assay; format: functional, organism-based
[6] = system: Human immunodeficiency virus 1; assay: Antiviral activity against HIV1 3B infected in human CEM cells assessed as reduction in virus-induced CEM giant cell formation incubated for 4 days at 37 degC by microscopy; format: functional, organism-based; conditions: CCRF-CEM
[7] = system: Respiratory syncytial virus; assay: Antiviral activity against Respiratory syncytial virus Long by viral CPE assay; format: functional, organism-based
Human alphaherpesvirus 2 = assay: Antiviral activity against HSV2 G infected in HEL cells by viral CPE assay; format: functional, organism-based; conditions: Human alphaherpesvirus 2, strain G
[8] = Selectivity index, ratio of cytotoxic CC50 for HEL cells to EC50 for VZV Oka
[9] = Selectivity index, ratio of cytotoxic CC50 for HEL cells to EC50 for Vaccinia virus Lederie; format: toxicity, cell-based; conditions: human, read-out: Ratio CC50/EC50
Human respirovirus 3 = assay: Antiviral activity against Human parainfluenza virus 3 by viral CPE assay; format: functional, organism-based
[10] = Selectivity index, ratio of cytotoxic CC50 for HEL cells to EC50 for HCMV AD169
[11] = system: Vesicular stomatitis virus; assay: Antiviral activity against VSV by viral CPE assay; format: functional, organism-based
[12] = Selectivity index, ratio of cytotoxic CC50 for HEL cells to EC50 for HCMV Davis
Human alphaherpesvirus 3 [13] = assay: Antiviral activity against thymidine kinase positive VZV OKa infected in HEL cells by plaque formation assay; format: functional, cell-based, Human herpesvirus 3 strain Oka vaccine; conditions: Human alphaherpesvirus 3, OKa
Human alphaherpesvirus 3 [14] = assay: Antiviral activity against thymidine kinase negative VZV YS/R infected in HEL cells by plaque formation assay; format: functional, organism-based; conditions: Human alphaherpesvirus 3, YS/R
Human alphaherpesvirus 1 [15] = assay: Antiviral activity against HSV1 KOS infected in HEL cells by viral CPE assay; format: functional, organism-based; conditions: Human alphaherpesvirus 1, KOS
[16] = Selectivity index, ratio of cytotoxic CC50 for HEL cells to EC50 for HSV2 G
Felid alphaherpesvirus 1 = assay: Antiviral activity against Feline herpesvirus infected in CRFK cells by viral CPE assay; format: functional, organism-based; conditions: Felid alphaherpesvirus 1, CRFK
Human betaherpesvirus 5 [17] = assay: Antiviral activity against HCMV AD169 infected in HEL cells by viral CPE assay; format: functional, organism-based; conditions: Human betaherpesvirus 5, AD169, HEL
Vaccinia virus = assay: Antiviral activity against Vaccinia virus Lederie infected in HEL cells by viral CPE assay; format: functional, organism-based; conditions: Orthopoxvirus vaccinia
[18] = Selectivity index, ratio of cytotoxic CC50 for HEL cells to EC50 for HSV1 KOS
[19] = Selectivity index, ratio of cytotoxic CC50 for HEL cells to EC50 for VZV 07/01
Human alphaherpesvirus 3 [20] = assay: Antiviral activity against thymidine kinase negative VZV 07/01 infected in HEL cells by plaque formation assay; format: functional, organism-based; conditions: Human alphaherpesvirus 3, 07/01, HEL
Human alphaherpesvirus 1 [21] = assay: Antiviral activity against thymidine kinase negative and ACV resistant HSV1 KOS infected in HEL cells by viral CPE assay; format: functional, organism-based; conditions: Human alphaherpesvirus 1, KOS
HEL = assay: Cytotoxicity against HEL cells assessed as effect on cell growth incubated for 3 days by Coulter counter assay; format: cell-based; conditions: human, 72 h
Punta Toro virus = assay: Antiviral activity against Punta Toro virus by viral CPE assay; format: functional, organism-based
[22] = system: Mammalian orthoreovirus 1; assay: Antiviral activity against Reovirus 1 by viral CPE assay; format: functional, organism-based
[23] = Selectivity index, ratio of cytotoxic CC50 for HEL cells to EC50 for ACV resistant HSV1 KOS
Coxsackievirus B4 = assay: Antiviral activity against Human coxsackievirus B4 by viral CPE assay; format: functional, organism-based
Human betaherpesvirus 5 [24] = assay: Antiviral activity against HCMV Davis infected in HEL cells by viral CPE assay; format: functional, organism-based; conditions: Human betaherpesvirus 5, Davis
[25] = Selectivity index, ratio of cytotoxic CC50 for HEL cells to EC50 for Feline herpesvirus; format: toxicity, cell-based; conditions: human, read-out: Ratio CC50/EC50

Row | Compound | Activity [1] | MCC at 72 h [3] [µM] | EC50 (Human alphaherpesvirus 2) [nM] | Ratio CC50/EC50 [8] | selectivity ratio [9] | Ratio CC50/EC50 [10] | Ratio CC50/EC50 [12] | EC50 (Human alphaherpesvirus 3 [13]) [nM] | EC50 (Human alphaherpesvirus 1 [15]) [nM] | Ratio CC50/EC50 [16] | EC50 (Felid alphaherpesvirus 1) [nM] | EC50 (Human betaherpesvirus 5 [17]) [nM] | EC50 (Vaccinia virus) [nM] | Ratio CC50/EC50 [18] | Ratio CC50/EC50 [19] | EC50 (Human alphaherpesvirus 3 [20]) [nM] | EC50 (Human alphaherpesvirus 1 [21]) [nM] | CC50 (HEL) [µM] | Ratio CC50/EC50 [23] | EC50 (Human betaherpesvirus 5 [24]) [nM] | other results
1 | CCCCCCCCCCCCCCCCOCCCOP(=O)(CO[C@H](CO)Cn1cnc2c(=O)[nH]c(N)nc21)OCCCOCCCCCCCCCCCCCCCC | inactive | ≥ 22.6 | 23200 | >29 | > 2.5 | >9 | >11 | 3900 | 11900 | >5 | > 113000 | 11900 | 44700 | >9 | >81 | 1400 | 30500 | > 113 | >4 | 10100 | Ratio CC50/EC50 [2]: >94; EC50 (Human alphaherpesvirus 3 [4]): 1200 nM; Ratio CC50/EC50 [5]: >57; Activity (Sindbis virus): inactive; Activity [6]: inactive; Activity [7]: inactive; Activity (Human respirovirus 3): inactive; Activity [11]: inactive; EC50 (Human alphaherpesvirus 3 [14]): 2000 nM; Activity (Punta Toro virus): inactive; Activity [22]: inactive; Activity (Coxsackievirus B4): inactive
2 | Nc1nc2c(ncn2C[C@H]2COP(=O)(O)CO2)c(=O)[nH]1 |  | > 100 | 660 | 170 | 17 | 11 | 11 | 100 | 660 | 26 | 900 | 1500 | 1000 | 26 | 74 | 230 | 500 | 17 | 34 | 1600 | selectivity ratio [25]: 96
3 | Nc1nc2c(ncn2C[C@@H](CO)OCP(=O)(O)O)c(=O)[nH]1 |  | > 100 | 780 | 70 | 35 | 22 | 26 | 560 | 780 | 50 | 720 | 1800 | 1100 | 50 | 186 | 210 | 780 | 39 | 50 | 1500 | selectivity ratio [25]: 157
4 | CCCCCCCCCCCCCCCCOCCCOP(=O)(CO[C@H](CO)Cn1cnc2c(=O)[nH]cnc21)OCCCOCCCCCCCCCCCCCCCC | inactive | ≥ 23 | > 115000 |  |  |  |  | > 23000 | > 115000 |  | > 115000 | > 23000 | > 115000 |  |  | > 4600 | > 115000 | > 115 |  | > 23000 | Activity (Sindbis virus): inactive; Activity [6]: inactive; Activity [7]: inactive; Activity (Human respirovirus 3): inactive; Activity [11]: inactive; Activity (Punta Toro virus): inactive; Activity [22]: inactive; Activity (Coxsackievirus B4): inactive
